# From US20150010928A1, “MEANS AND METHODS FOR ASSESSING AN ENDOCRINE DISEASE OR DISORDER” (priority 2012, published 2015)
# Marks after values point to notes of the source that are not given here.
# System: male rats
# Assay: Plasma metabolite profiling (GC-MS, LC-MS, SPE-LC-MS) in male rats dosed once daily over 28 days (OECD 407)
# Format: in vivo, rat
# Settings: high dose; for 3-Methoxytyrosine / 3-O-Methylsphingosine (d18:1) / 5-O-Methylsphingosine (d18:1) / Androstenedione / Arachidonic acid (C20:cis[5,8,11,14]4) / Behenic acid (C22:0) / Cholesterol / Cysteine / Dodecanol / Eicosanoic acid (C20:0) / Galactose, lipid fraction / Glycerol phosphate, lipid fraction / Histidine / Indole-3-lactic acid / Lignoceric acid (C24:0) / Nervonic acid (C24:cis[15]1) / Noradrenaline (Norepinephrine) / Phosphate, lipid fraction / Phosphatidylcholine (C18:0, C18:2) / Phosphatidylcholine (C18:0, C20:3) / Phosphatidylcholine (C18:0, C22:6) / Phosphatidylcholine (C18:0,C18:1) / Phytosphingosine / Stearic acid (C18:0) / Testosterone / Threonine / Tricosanoic acid (C23:0) / Tryptophan / alpha-Tocopherol / beta-Sitosterol / dihomo-gamma-Linolenic acid (C20:cis[8,11,14]3) / erythro-Sphingosine (d18:1) / myo-Inositol-2-phosphate, lipid fraction / threo-Sphingosine (d18:1): Table 11a; for 3-Hydroxybutyrate / 4-Hydroxy-3-methoxyphenylglycol (HMPG) / 18-Hydroxy-11-deoxycorticosterone / 21-Hydroxyprogesterone (11-Deoxycorticosterone) / Citrate / Coenzyme Q9 / Coenzyme Q10 / Corticosterone / Metanephrine / Palmitoleic acid (C16:cis[9]1) / Phosphatidylcholine (C16:0, C16:0) / Progesterone / trans-4-Hydroxyproline: Table 11b; for 3-Hydroxybutyrate, ratio versus control / 18-Hydroxy-11-deoxycorticosterone, ratio versus control / Ceramide (d18:1, C24:1), ratio versus control / Coenzyme Q10, ratio versus control / Corticosterone, ratio versus control / Metanephrine, ratio versus control / Tricosanoic acid (C23:0), ratio versus control / alpha-Tocopherol, ratio versus control / trans-4-Hydroxyproline, ratio versus control: male rats, plasma
# How it was run: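 Polar and lipid fractions profiled by GC-MS and LC-MS/MRM, steroids by online SPE-LC-MS; pool-normalized data compared to controls by Welch test as treatment ratios and p-values.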
compound,measurement,setting,value
CC(=O)O[C@]1(C(C)=O)CC[C@H]2[C@@H]3C=C(Cl)C4=CC(=O)[C@@H]5C[C@@H]5[C@]4(C)[C@H]3CC[C@@]21C [Cyproteron Acetate],3-Methoxytyrosine,m7,1.37 *
same,3-O-Methylsphingosine (d18:1),m7,1.73 *
same,5-O-Methylsphingosine (d18:1),m7,1.83 *
same,Androstenedione,m7,4.65^
same,"Arachidonic acid (C20:cis[5,8,11,14]4)",m7,1.35 *
same,Behenic acid (C22:0),m7,1.38 *
same,Cholesterol,m7,1.33 *
same,Cysteine,m7,1.3 *
same,Dodecanol,m7,1.26 *
same,Eicosanoic acid (C20:0),m7,1.06^
same,"Galactose, lipid fraction",m7,1.37 *
same,"Glycerol phosphate, lipid fraction",m7,1.57 *
same,Histidine,m7,1.39 *
same,Indole-3-lactic acid,m7,1.13 *
same,Lignoceric acid (C24:0),m7,1.46 *
same,Nervonic acid (C24:cis[15]1),m7,1.69 *
same,Noradrenaline (Norepinephrine),m7,1.61 *
same,"Phosphate, lipid fraction",m7,1.32 *
same,"Phosphatidylcholine (C18:0, C18:2)",m7,1.04 *
same,"Phosphatidylcholine (C18:0, C20:3)",m7,1.03^
same,"Phosphatidylcholine (C18:0, C22:6)",m7,1.31 *
same,"Phosphatidylcholine (C18:0,C18:1)",m7,1.09 *
same,Phytosphingosine,m7,1.05^
same,Stearic acid (C18:0),m7,1.44 *
same,Testosterone,m7,3.32^
same,Threonine,m7,1.78 *
same,Tricosanoic acid (C23:0),m7,1.48 *
same,Tryptophan,m7,1.1 *
same,alpha-Tocopherol,m7,1.22 *
same,beta-Sitosterol,m7,2.11 *
same,"dihomo-gamma-Linolenic acid (C20:cis[8,11,14]3)",m7,1.66 *
same,erythro-Sphingosine (d18:1),m7,1.68 *
same,"myo-Inositol-2-phosphate, lipid fraction",m7,1.65 *
same,threo-Sphingosine (d18:1),m7,1.39 *
same,3-Hydroxybutyrate,m7,0.58 *
same,4-Hydroxy-3-methoxyphenylglycol (HMPG),m7,1.11^
same,18-Hydroxy-11-deoxycorticosterone,m7,0.03 *
same,21-Hydroxyprogesterone (11-Deoxycorticosterone),m7,0.3 *
same,Citrate,m7,1.24^
same,Coenzyme Q9,m7,0.58 *
same,Coenzyme Q10,m7,0.49 *
same,Corticosterone,m7,0.04 *
same,Metanephrine,m7,0.91^
same,Palmitoleic acid (C16:cis[9]1),m7,0.88 *
same,"Phosphatidylcholine (C16:0, C16:0)",m7,0.78 *
same,Progesterone,m7,0.4 *
same,trans-4-Hydroxyproline,m7,0.53 *
same,3-Methoxytyrosine,m14,1.81 *
same,3-O-Methylsphingosine (d18:1),m14,2.19 *
same,5-O-Methylsphingosine (d18:1),m14,2.18 *
same,Androstenedione,m14,3.8 *
same,"Arachidonic acid (C20:cis[5,8,11,14]4)",m14,2.03 *
same,Behenic acid (C22:0),m14,1.52 *
same,Cholesterol,m14,1.63 *
same,Cysteine,m14,1.28 *
same,Dodecanol,m14,1.71 *
same,Eicosanoic acid (C20:0),m14,1.15
same,"Galactose, lipid fraction",m14,2.57 *
same,"Glycerol phosphate, lipid fraction",m14,2.05 *
same,Histidine,m14,1.17
same,Indole-3-lactic acid,m14,1.15 *
same,Lignoceric acid (C24:0),m14,1.78 *
same,Nervonic acid (C24:cis[15]1),m14,2.55 *
same,Noradrenaline (Norepinephrine),m14,1.22
same,"Phosphate, lipid fraction",m14,1.8 *
same,"Phosphatidylcholine (C18:0, C18:2)",m14,1.04
same,"Phosphatidylcholine (C18:0, C20:3)",m14,1.16 *
same,"Phosphatidylcholine (C18:0, C22:6)",m14,1.5 *
same,"Phosphatidylcholine (C18:0,C18:1)",m14,1.48 *
same,Phytosphingosine,m14,1.23 *
same,Stearic acid (C18:0),m14,2.3 *
same,Testosterone,m14,2.63 *
same,Threonine,m14,2.58 *
same,Tricosanoic acid (C23:0),m14,1.3 *
same,Tryptophan,m14,1.11 *
same,alpha-Tocopherol,m14,1.32 *
same,beta-Sitosterol,m14,2.16 *
same,"dihomo-gamma-Linolenic acid (C20:cis[8,11,14]3)",m14,2.78 *
same,erythro-Sphingosine (d18:1),m14,1.92 *
same,"myo-Inositol-2-phosphate, lipid fraction",m14,2.78 *
same,threo-Sphingosine (d18:1),m14,2 *
same,3-Hydroxybutyrate,m14,0.73 *
same,4-Hydroxy-3-methoxyphenylglycol (HMPG),m14,0.99^
same,18-Hydroxy-11-deoxycorticosterone,m14,0.01 *
same,21-Hydroxyprogesterone (11-Deoxycorticosterone),m14,0.41 *
same,Citrate,m14,0.73 *
same,Coenzyme Q9,m14,0.74 *
same,Coenzyme Q10,m14,0.86^
same,Corticosterone,m14,0.01 *
same,Metanephrine,m14,0.66 *
same,Palmitoleic acid (C16:cis[9]1),m14,0.74 *
same,"Phosphatidylcholine (C16:0, C16:0)",m14,0.87 *
same,Progesterone,m14,0.54 *
same,trans-4-Hydroxyproline,m14,0.44 *
same,3-Methoxytyrosine,m28,2.05 *
same,3-O-Methylsphingosine (d18:1),m28,2.98 *
same,5-O-Methylsphingosine (d18:1),m28,2.54 *
same,Androstenedione,m28,0.94^
same,"Arachidonic acid (C20:cis[5,8,11,14]4)",m28,2.35 *
same,Behenic acid (C22:0),m28,1.57 *
same,Cholesterol,m28,1.97 *
same,Cysteine,m28,1.54 *
same,Dodecanol,m28,1.52 *
same,Eicosanoic acid (C20:0),m28,1.71 *
same,"Galactose, lipid fraction",m28,1.68 *
same,"Glycerol phosphate, lipid fraction",m28,2.16 *
same,Histidine,m28,1.37 *
same,Indole-3-lactic acid,m28,1.15 *
same,Lignoceric acid (C24:0),m28,1.9 *
same,Nervonic acid (C24:cis[15]1),m28,2.83 *
same,Noradrenaline (Norepinephrine),m28,1.39 *
same,"Phosphate, lipid fraction",m28,1.86 *
same,"Phosphatidylcholine (C18:0, C18:2)",m28,1.03^
same,"Phosphatidylcholine (C18:0, C20:3)",m28,1.18 *
same,"Phosphatidylcholine (C18:0, C22:6)",m28,1.67 *
same,"Phosphatidylcholine (C18:0,C18:1)",m28,1.55*
same,Phytosphingosine,m28,1.68 *
same,Stearic acid (C18:0),m28,2.71 *
same,Testosterone,m28,0.56^
same,Threonine,m28,1.73 *
same,Tricosanoic acid (C23:0),m28,1.39 *
same,Tryptophan,m28,1.14 *
same,alpha-Tocopherol,m28,1.44 *
same,beta-Sitosterol,m28,2.6 *
same,"dihomo-gamma-Linolenic acid (C20:cis[8,11,14]3)",m28,4.01 *
same,erythro-Sphingosine (d18:1),m28,2.2 *
same,"myo-Inositol-2-phosphate, lipid fraction",m28,3.26 *
same,threo-Sphingosine (d18:1),m28,2.13 *
same,3-Hydroxybutyrate,m28,0.68 *
same,4-Hydroxy-3-methoxyphenylglycol (HMPG),m28,0.82 *
same,18-Hydroxy-11-deoxycorticosterone,m28,0 *
same,21-Hydroxyprogesterone (11-Deoxycorticosterone),m28,0.01 *
same,Citrate,m28,0.81
same,Coenzyme Q9,m28,0.59 *
same,Coenzyme Q10,m28,0.7 *
same,Corticosterone,m28,0 *
same,Metanephrine,m28,0.58 *
same,Palmitoleic acid (C16:cis[9]1),m28,1.42 *
same,"Phosphatidylcholine (C16:0, C16:0)",m28,0.79 *
same,Progesterone,m28,0.03 *
same,trans-4-Hydroxyproline,m28,0.52 *
same,"3-Hydroxybutyrate, ratio versus control",day 7,0.58 *
same,"18-Hydroxy-11-deoxycorticosterone, ratio versus control",day 7,0.08 *
same,"Ceramide (d18:1, C24:1), ratio versus control",day 7,1
same,"Coenzyme Q10, ratio versus control",day 7,0.49 *
same,"Corticosterone, ratio versus control",day 7,0.04 *
same,"Metanephrine, ratio versus control",day 7,0.91
same,"Tricosanoic acid (C23:0), ratio versus control",day 7,1.48 *
same,"alpha-Tocopherol, ratio versus control",day 7,1.22 *
same,"trans-4-Hydroxyproline, ratio versus control",day 7,0.53 *
same,"3-Hydroxybutyrate, ratio versus control",day 14,0.73 *
same,"18-Hydroxy-11-deoxycorticosterone, ratio versus control",day 14,0.08 *
same,"Ceramide (d18:1, C24:1), ratio versus control",day 14,1.47 *
same,"Coenzyme Q10, ratio versus control",day 14,0.86
same,"Corticosterone, ratio versus control",day 14,0.01 *
same,"Metanephrine, ratio versus control",day 14,0.66 *
same,"Tricosanoic acid (C23:0), ratio versus control",day 14,1.3 *
same,"alpha-Tocopherol, ratio versus control",day 14,1.32 *
same,"trans-4-Hydroxyproline, ratio versus control",day 14,0.44 *
same,"3-Hydroxybutyrate, ratio versus control",day 28,0.68 *
same,"18-Hydroxy-11-deoxycorticosterone, ratio versus control",day 28,0.02 *
same,"Ceramide (d18:1, C24:1), ratio versus control",day 28,2.22 *
same,"Coenzyme Q10, ratio versus control",day 28,0.7 *
same,"Corticosterone, ratio versus control",day 28,0 *
same,"Metanephrine, ratio versus control",day 28,0.58 *
same,"Tricosanoic acid (C23:0), ratio versus control",day 28,1.39 *
same,"alpha-Tocopherol, ratio versus control",day 28,1.44 *
same,"trans-4-Hydroxyproline, ratio versus control",day 28,0.52 *
